Patent publication US20070270462A1, “8-hydroxyquinoline compounds for treating a polyglutamine (polyQ)-expansion disease” (priority 2005, published 2007)
pEC50: −log10 of the molar value.

Key:
egfp-alone = assay: Western blotting of cell extracts, egfp-alone expression; assay type: cell-based
Excerpt: (§1) PolyQ-htt-GFP fusion constructs, in which the polyglutamine region is encoded by CAA and CAG-containing tandem repeats ([…]) [SEQ ID NO: 1], human polyglutaminen, were obtained from the Hereditary Disease Foundation, Santa Monica, Calif., USA. PC12 and HEK293 cells were maintained in MEM supplemented with 10% v/v FBS, switched to Opti-MEM without serum for 6 hrs during transfection using Lipofectamine 2000 (Invitrogen, Carlsbad, Calif., USA), and returned to serum-containing medium thereafter (up to 48 hours). […] Control cultures received equivalent amounts of DMSO-containing vehicle (<0.1% w/v DMSO, final concentration).
HEK293 or PC12 cells were lysed in PBS buffer containing 1% v/v Triton X-100 and protease inhibitor cocktail (Roche, Indianapolis, Ind.), and passed through a 28 gauge needle to ensure the release of Htt inclusions from the nuclei. Whole mouse brains were homogenized in 50 mM Tris-HCl (pH 7.4), 150 mM NaCl, 1% v/v Triton X-100 and complete protease inhibitor cocktail. Brain homogenate was pre-cleared by centrifuging at 7,500 g for 90 s at 4° C. The supernatant was passed through a 28-gauge needle and boiled in SDS sample buffer for 10 min. Fifty μg of total protein was loaded onto 10% w/v SDS gel containing a 4% w/v stacking gel. […]

[1] = tested on: Htt exon1-Q103-egfp transfected PC12 cells; assay: cells; assay type: cell-based
Excerpt: as §1
Plasma membrane integrity was evaluated using propidium iodide at 20 μg/ml final concentration. Approximately 200 cells transfected with the Htt^exon1-Q103-egf plasmid were counted for each treatment group 48 hr after transfection. Cells were at that time as expanded protein accumulation had reached a plateau, and 90% of cell death occurred by this time point. The experiment was repeated twice and counts were averaged. Counts of transfected cells were averaged from three independent, randomly-selected fields. ImageJ 1.32j (National Institutes of Health, USA), was used to measure the size of the lateral ventricles (n≧6 for each group). […]

aggregated huntingtin = assay: Western blotting of aggregated huntingtin in whole-brain extracts of R6/2 mice; assay type: in vivo, mouse; conditions: 8 weeks daily oral CQ 30 mg/kg/day
Method: Whole mouse brains were homogenized in 50 mM Tris-HCl (pH 7.4), 150 mM NaCl, 1% v/v Triton X-100 and complete protease inhibitor cocktail. Brain homogenate was pre-cleared by centrifuging at 7,500 g for 90 s at 4° C. The supernatant was passed through a 28-gauge needle and boiled in SDS sample buffer for 10 min. Fifty μg of total protein was loaded onto 10% w/v SDS gel containing a 4% w/v stacking gel. Monoclonal antibodies anti-polyglutamine (1:2,000), anti-GAPDH (1:10,000), anti-GFP (1:4,000), and anti-Htt (EM48) in 1:1000 dilution were used for immunoblotting. All western blot experiments were performed at least three times and band intensities were averaged.

R6/2 mice [2] = assay: Lateral ventricle area (striatal atrophy) in R6/2 mice; assay type: in vivo, mouse; conditions: 11-week old, oral CQ 30 mg/kg/day, versus sham treatment group
Method: (§2) A colony of transgenic mice strain R6/2 that is heterozygous for htt exon1 (containing 145 CAG repeats) was maintained, with founders originating and available from The Jackson Laboratory (Bar Harbor, Me., USA). Male transgenic R6/2 mice were bred with background strain (B6CBAFI/J) females. Genotyping was done according to Hockly et al, Brain Res Bull 61, 469-479, 2003. CQ in water was orally administered to mice at 30 mg/kg/day starting at 3 weeks of age and continued until the mice were deceased or sacrificed for tissues. Littermate R6/2 mice were gavaged with water vehicle alone. At the end of CQ treatment mice were anesthetized and transcardially perfused with PBS followed by 4% v/v paraformaldehyde. Blood glucose levels were determined after at least 8 hrs of fasting in 11-week old mice (n=6 for wild-type, n=4 for vehicle-treated R6/2, n=6 for CQ-treated R6/2 littermates) using a 2300 STAT Plus glucose analyzer (YSI, Yellowsonte, Ohio, USA). Fasting blood insulin levels in animals fasted for 8 hrs were measured using an Ultra Sensitive Rat Insulin ELISA Kit (Crystal Chem, Inc., Downers Grove, Ill., USA) according to manufacturer's instructions.
Plasma membrane integrity was evaluated using propidium iodide at 20 μg/ml final concentration. Approximately 200 cells transfected with the Htt^exon1-Q103-egf plasmid were counted for each treatment group 48 hr after transfection. […]

R6/2 mice [3] = assay: Foot clasping test in R6/2 mice; assay type: in vivo, mouse; conditions: R6/2 mice at 10 weeks
Method: as §2, with “At the end of CQ treatment mice were anesthetized and transcardially perfused with PBS followed by 4% v/v paraformaldehyde.” left out
(§3) Rotarod performance (n≧6 for each treatment group) was assessed as described by Hockly et al., 2003 Supra with the modification that the SDI Rota-Rod (San Diego Instruments, San Diego, Calif.) was set to linearly increase in speed to 40 rpm in 4 min ramp time. […]

R6/2 mice [4] = assay: Rotarod performance in R6/2 mice; assay type: in vivo, mouse; conditions: between ninth and eleventh weeks of age, oral CQ 30 mg/kg/day
Method: as §2, with “At the end of CQ treatment mice were anesthetized and transcardially perfused with PBS followed by 4% v/v paraformaldehyde.” left out
as §3

R6/2 mice [5] = assay: Body weight of R6/2 mice; assay type: in vivo, mouse; conditions: 10th and 11th weeks, oral CQ 30 mg/kg/day
Method: as §2, with “instructions. […]” for “instructions.”

R6/2 mice [6] = assay: Fasting blood glucose in R6/2 mice; assay type: in vivo, mouse; conditions: 11-week old R6/2 mice after 8 weeks of CQ treatment, mean ± s.e.m.
Method: as §2
Consistent with the blood glucose level was a reciprocal change in blood insulin levels.
Data are mean+s.e.m. n≧4 for each treatment group. *P<0.0004 for glucose, **P=0.0065 for insulin levels comparing vehicle and CQ-treated groups.

Alzheimer's disease = conditions: phase II clinical trial; cited from earlier work

Oc1c(I)cc(Cl)c2cccnc12 [CQ, 5-chloro-7-iodo-8-hydroxy-quinoline]
inhibition of egfp-alone expression (egfp-alone): not observed
pEC50 ([1]; Rattus norvegicus, PC-12, Htt exon1-Q103-egfp cells, PI staining, 48 hr after transfection, read-out: cell survival improvement, half maximal effect): 5.70 to 6.00
CQ concentration at which cell death began to increase (toxic effects of CQ) ([1]; rat, 48 h): 8 µM
reduction in the quantity of aggregated huntingtin (aggregated huntingtin): 3.9 fold
reduction of lateral ventricle area (R6/2 mice [2]): 55%
average clasping score (R6/2 mice [3]; score of 3 maximum, oral CQ 30 mg/kg/day): 1.3
reduction of average clasping score (R6/2 mice [3]; versus vehicle (2.5)): 48%
rotarod performance (R6/2 mice [4]): scored significantly better
body weight (R6/2 mice [5]): significantly greater than untreated animals
fasting blood glucose level (R6/2 mice [6]): 4.1 ± 0.3 mM
CQ toxicity (Alzheimer's disease): no significant CQ toxicity
effects on Alzheimer's disease (Alzheimer's disease): early positive effects
